pIC50: −log10 of the molar value. Where a name gives a salt, the structure may show the parent alone.
What was measured:
[1] = target: T1, CDK1/cycA1 (Homo sapiens, UniProt P06493); test: In vitro kinase assay (PKLight luciferase ATP readout), CDK1; type: biochemical; settings: ATP at Km; read-out: In vitro Kinase Inhibition CDK1 IC50
T1 construct: purchased ProQinase GmbH
Protocol: (§1) Purified recombinant CDK1/cycA1, CDK2/cycA1, CDK4/cycD1, CDK5/p35NCK, CDK6/cycD1, CDK7/CycH/MAT1, and CDK9/CycT1 were purchased from ProQinase GmbH. Kinase assays were performed according to manufacturer's protocols. Rb-CTF (ProQinase GmbH) (cat number: 0040-0000-6) was used as the kinase substrate for CDK1, CDK2, CDK4, and CDK6 kinases. […] A luciferase assay (PKLight assay; Cambrex) was used to determine ATP remaining at the end of the kinase reaction, which provides a measure of kinase activity, according to the manufacturer's protocols.
(§2) Kinase assays were carried out by incubation of increasing amounts of test compound with purified recombinant CDK-Cyclin complex, followed by measurement of free ATP remaining in the reaction using the luciferase assay kit (PKLight, Cambrex) which therefore provided a measure of inhibition for the specific CDK.
(§3) 5 μL of 1× kinase buffer (Cell Signalling Technologies) was mixed with 200 ng CDK1, 200 ng CDK2, 50 ng CDK4, 100 ng CDK5, or 200 ng CDK6 with 5 μg Rb-CTF and 300 ng CDK7 or 200 ng CDK9 with 500 μM RNA Poll II CTD peptide. […] The mixture was incubated at 30° C. for 30 minutes. The reaction is stopped with 20 μL of Stop Solution (provided in the PKLight kit) for 10 minutes at room temperature. Then 40 μL of the luciferase mix was added to the reaction mixture which was incubated for a further 10 minutes at room temperature and measured using the Tecan Infinite 2000 plate reader. GraphPad Prism Software was used to generate standard curve and determine the IC50's for each CDK.

[2] = target: T2, CDK2/cycA1 (Homo sapiens, UniProt P24941); test: In vitro kinase assay (PKLight luciferase ATP readout), CDK2; type: biochemical; settings: ATP at Km; read-out: In vitro Kinase Inhibition CDK2 IC50
T2 construct: purchased ProQinase GmbH
Protocol: as §1, §2, §3

[3] = target: T3, CDK7/CycH/MAT1 (Homo sapiens, UniProt P50613); test: In vitro kinase assay (PKLight luciferase ATP readout), CDK7; type: biochemical; settings: for pIC50: ATP at Km, read-out: In vitro Kinase Inhibition CDK7 IC50; for Selectivity CDK1/CDK7: ratio of CDK1 IC50 to CDK7 IC50; for Selectivity CDK2/CDK7: ratio of CDK2 IC50 to CDK7 IC50
T3 construct: purchased ProQinase GmbH
Protocol: as §1, §2, §3

[4] = test system: MCF7 cells; test: Cell growth inhibition assay (sulforhodamine B), MCF7; type: cell-based; settings: Homo sapiens, 72 hours, SRB assay, read-out: Growth Inhibition, GI50 MCF7
Protocol: (§4) All cells were purchased from the American Type Culture Collection (ATCC) and MCF7 cells were routinely cultured in Dulbecco's Modified Eagle's Medium (DMEM) supplemented with 10% fetal calf serum (FCS) (First Link) and HCT116 cells were routinely cultured in Roswell Park Memorial Instititute Medium (RPMI) supplemented with 10% FCS. Cell growth was assessed using a known sulforhodamine B assay (see, e.g., Skehan et al., 1990).
(§5) MCF-7 cells purchased from ATCC (USA) were routinely passaged in DMEM, supplemented with 10% FCS and HCT116 cells purchased from ATCC (USA) were routinely passaged in RPMI supplemented with 10% FCS and kept in a 37° C. incubator with 5% CO2. The growth assay for both cell lines was performed in the appropriate media using the exact same protocol as described here. For the growth assay, 5000 cells were seeded into each well of 96-well plates in DMEM containing 10% FCS. Test compounds prepared in DMSO were added to the medium at concentrations ranging from 0.00038-100 μM. The cells were incubated for a further 72 hours, at which time they were fixed by the addition of 100 μL/well of ice-cold 40% trichloroacetic acid (TCA). The plates were left for 1 hour at 4° C., washed in water and 100 μL of 0.4% (w/v) sulforhodamine (SRB; Sigma-Aldrich, UK) prepared in 1% acetic acid was added. Plates were washed in 1% acetic acid to remove excess SRB reagent, air dried, and bound dye was solubilized by the addition of 100 μL of 10 mM tris base. The plates were read at 492 nm using a plate reader.

[5] = test system: HCT116 cells; test: Cell growth inhibition assay (sulforhodamine B), HCT116; type: cell-based; settings: Homo sapiens, HCT-116; 72 hours, SRB assay; read-out: Growth Inhibition, GI50 HCT116
Protocol: as §4, §5

T3 sequence (P50613 whole entry): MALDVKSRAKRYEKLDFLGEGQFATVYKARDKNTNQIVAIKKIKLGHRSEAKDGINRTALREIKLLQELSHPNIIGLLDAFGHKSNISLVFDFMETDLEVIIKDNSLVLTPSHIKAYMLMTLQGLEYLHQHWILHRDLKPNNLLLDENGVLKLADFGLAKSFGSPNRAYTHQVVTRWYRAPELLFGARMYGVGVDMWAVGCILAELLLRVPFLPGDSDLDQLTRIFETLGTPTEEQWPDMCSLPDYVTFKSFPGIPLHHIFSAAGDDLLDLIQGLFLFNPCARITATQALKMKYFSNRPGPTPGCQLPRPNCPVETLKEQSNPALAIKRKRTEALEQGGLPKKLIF
T3 sequence (P51946 whole entry partner): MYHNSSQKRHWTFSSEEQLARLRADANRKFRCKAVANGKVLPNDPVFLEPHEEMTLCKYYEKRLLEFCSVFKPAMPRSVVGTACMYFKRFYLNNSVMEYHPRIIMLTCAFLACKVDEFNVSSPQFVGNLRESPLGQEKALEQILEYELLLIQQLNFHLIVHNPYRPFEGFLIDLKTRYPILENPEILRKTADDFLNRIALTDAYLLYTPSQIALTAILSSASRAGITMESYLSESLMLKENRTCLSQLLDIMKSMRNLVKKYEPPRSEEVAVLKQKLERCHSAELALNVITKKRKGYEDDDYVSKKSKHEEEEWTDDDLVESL
T3 sequence (P51948 whole entry partner): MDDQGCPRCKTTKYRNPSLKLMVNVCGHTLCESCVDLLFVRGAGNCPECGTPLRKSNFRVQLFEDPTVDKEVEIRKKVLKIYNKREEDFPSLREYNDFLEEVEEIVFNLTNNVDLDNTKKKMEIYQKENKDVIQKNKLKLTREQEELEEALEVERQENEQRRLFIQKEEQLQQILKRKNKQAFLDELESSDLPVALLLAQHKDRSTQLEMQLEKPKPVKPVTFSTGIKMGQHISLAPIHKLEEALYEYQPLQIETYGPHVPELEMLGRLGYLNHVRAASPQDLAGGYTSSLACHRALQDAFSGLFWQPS

Compound: CC(C)c1cnn2c(NCC3CCCCC3)cc(N[C@H]3CNC[C@H]3O)nc12 [PPDA-016]
- pIC50 [1]: 5.84
- pIC50 [2]: 5.34
- pIC50 [3]: 6.61
- Selectivity CDK1/CDK7 [3]: 5.9 fold
- Selectivity CDK2/CDK7 [3]: 18 fold
- GI50 [4]: 13.1 µM
- GI50 [5]: 7.4 µM

Compound: CO[C@@H]1CCNCC1Nc1cc(NCc2ccccc2)n2ncc(C(C)C)c2n1 (stereo partly drawn) [PPDA-023]
- pIC50 [1]: 5.92
- pIC50 [2]: 6.35
- pIC50 [3]: 7.22
- Selectivity CDK1/CDK7 [3]: 20 fold
- Selectivity CDK2/CDK7 [3]: 7.5 fold
- GI50 [4]: 3.7 µM
- GI50 [5]: 5.6 µM

Compound: CC(C)c1cnn2c(Nc3ccc(N4CCN(C)CC4)cc3)cc(NC[C@H]3CCNC[C@@H]3O)nc12 [PPDA-007, (3R,4R)-4-((3-iso-Propyl-7-(4-(4-methylpiperazin-1-yl)phenylamino)pyrazolo[1,5-a]pyrimidin-5-ylamino)methyl)piperidin-3-ol hydrochloride]
- pIC50 [1]: 5.94
- pIC50 [2]: 6.30
- pIC50 [3]: 6.34
- Selectivity CDK1/CDK7 [3]: 2.5 fold
- Selectivity CDK2/CDK7 [3]: 1.1 fold
- GI50 [4]: 2.1 µM
- GI50 [5]: 4.1 µM

Compound: CC(C)c1cnn2c(NCC3CCCCC3)cc(NC[C@H]3CCNC[C@@H]3O)nc12 [PPDA-004]
- pIC50 [1]: 5.74
- pIC50 [2]: 5.89
- pIC50 [3]: 6.03
- Selectivity CDK1/CDK7 [3]: 1.9 fold
- Selectivity CDK2/CDK7 [3]: 1.4 fold
- GI50 [4]: 2.7 µM
- GI50 [5]: 2.5 µM

Compound: CC(C)c1cnn2c(NCC3CCCCC3)cc(NCC3(O)CCNCC3)nc12 [PPDA-013]
- pIC50 [1]: 6.48
- pIC50 [2]: 6.46
- pIC50 [3]: 7.10
- Selectivity CDK1/CDK7 [3]: 4.1 fold
- Selectivity CDK2/CDK7 [3]: 4.3 fold
- GI50 [4]: 1.2 µM
- GI50 [5]: 1.1 µM

Compound: CC(C)c1cnn2c(NCc3ccncc3)cc(NC[C@@]3(CO)CCNC3)nc12 (racemic) [PPDA-020]
- pIC50 [1]: 6.36
- pIC50 [2]: 7.66
- pIC50 [3]: 7.36
- Selectivity CDK1/CDK7 [3]: 10 fold
- Selectivity CDK2/CDK7 [3]: 0.5 fold
- GI50 [4]: 0.6 µM
- GI50 [5]: 1.5 µM

Compound: CC(C)c1cnn2c(NCc3ccccc3)cc(N[C@H]3CN[C@@H](CO)C3)nc12 [PPDA-028]
- pIC50 [1]: 5.40
- pIC50 [2]: 6.58
- pIC50 [3]: 7.37
- Selectivity CDK1/CDK7 [3]: 93 fold
- Selectivity CDK2/CDK7 [3]: 6.1 fold
- GI50 [4]: 3.3 µM
- GI50 [5]: 7.3 µM

Compound: CC(C)c1cnn2c(NC(=O)C3CCNCC3)cc(NC[C@H]3CCNC[C@@H]3O)nc12 [PPDA-009, N-(5-((((3R,4R)-3-Hydroxypiperidin-4-yl)methyl)amino)-3-iso-propylpyrazolo[1,5-a]pyrimidin-7-yl)piperidine-4-carboxamide hydrochloride]
- pIC50 [1]: 6.25
- pIC50 [2]: 6.34
- pIC50 [3]: 6.34
- Selectivity CDK1/CDK7 [3]: 1.2 fold
- Selectivity CDK2/CDK7 [3]: 1.0 fold
- GI50 [4]: 38.9 µM
- GI50 [5]: 86.6 µM

Compound: COC[C@H]1C[C@@H](Nc2cc(NCc3ccccc3)n3ncc(C(C)C)c3n2)CN1 [PPDA-027]
- pIC50 [1]: 6.60
- pIC50 [2]: 6.17
- pIC50 [3]: 7.74
- Selectivity CDK1/CDK7 [3]: 14 fold
- Selectivity CDK2/CDK7 [3]: 38 fold
- GI50 [4]: 3.4 µM
- GI50 [5]: 8.9 µM

Compound: CC(C)c1cnn2c(NCc3ccccc3)cc(N[C@@H]3CN[C@H](CO)C3)nc12 [PPDA-026, ((2S,4S)-4-(7-(Benzylamino)-3-iso-propylpyrazolo[1,5-a]pyrimidin-5-ylamino)pyrrolidin-2-yl)methanol hydrochloride]
- pIC50 [1]: 6.79
- pIC50 [2]: 6.69
- pIC50 [3]: 7.05
- Selectivity CDK1/CDK7 [3]: 1.8 fold
- Selectivity CDK2/CDK7 [3]: 2.3 fold
- GI50 [4]: 2 µM
- GI50 [5]: 10.7 µM

Compound: CC(C)c1cnn2c(NCc3ccc(C(F)(F)F)cc3)cc(N[C@H]3CNC[C@H]3O)nc12 [PPDA-017]
- pIC50 [1]: 5.87
- pIC50 [2]: 6.12
- pIC50 [3]: 5.72
- Selectivity CDK1/CDK7 [3]: 0.7 fold
- Selectivity CDK2/CDK7 [3]: 0.4 fold
- GI50 [4]: 12.8 µM
- GI50 [5]: 11.4 µM

Compound: CC(C)c1cnn2c(NCc3ccccc3Cl)cc(NCC3(O)CCNCC3)nc12 [PPDA-011]
- pIC50 [1]: 6.84
- pIC50 [2]: 7.01
- pIC50 [3]: 6.38
- Selectivity CDK1/CDK7 [3]: 0.3 fold
- Selectivity CDK2/CDK7 [3]: 0.2 fold
- GI50 [4]: 0.3 µM
- GI50 [5]: 1.6 µM

Compound: CC(C)c1cnn2c(NCC3CCCCC3)cc(NC[C@@]3(CO)CCNC3)nc12 (racemic) [PPDA-019]
- pIC50 [1]: 7.10
- pIC50 [2]: 8.05
- pIC50 [3]: 7.54
- Selectivity CDK1/CDK7 [3]: 2.8 fold
- Selectivity CDK2/CDK7 [3]: 0.3 fold
- GI50 [4]: 0.3 µM
- GI50 [5]: 0.4 µM

Compound: CC(C)c1cnn2c(NCc3ccncc3)cc(NCC3(O)CCNCC3)nc12 [PPDA-010, 4-(((3-iso-Propyl-7-((pyridin-4-ylmethyl)amino)pyrazolo[1,5-a]pyrimidin-5-yl)amino)methyl)piperidin-4-ol hydrochloride]
- pIC50 [1]: 5.44
- pIC50 [2]: 6.94
- pIC50 [3]: 6.10
- Selectivity CDK1/CDK7 [3]: 4.6 fold
- Selectivity CDK2/CDK7 [3]: 0.1 fold
- GI50 [4]: 11.9 µM
- GI50 [5]: 25 µM

Compound: CC(C)c1cnn2c(NCc3ccccc3Br)cc(NCC3(O)CCNCC3)nc12 [PPDA-012]
- pIC50 [1]: 7.13
- pIC50 [2]: 6.93
- pIC50 [3]: 6.32
- Selectivity CDK1/CDK7 [3]: 0.2 fold
- Selectivity CDK2/CDK7 [3]: 0.2 fold
- GI50 [4]: 0.5 µM
- GI50 [5]: 1.6 µM

Reference: US11566029B2, “Pyrazolo[1,5-a]pyrimidine-5,7-diamine compounds as CDK inhibitors and their therapeutic use” (CANCER RESEARCH TECHNOLOGY LIMITED, priority 2014, dated 2023)
